Source: patent US8859543B2, “Imidazo[1,2-a]pyrazine derivatives and their use for the prevention or treatment of neurological, psychiatric and metabolic disorders and diseases” (Janssen Pharmaceutica NV, priority 2010, dated 2014)
Read-outs that look alike come from different tables or passages of the source.

Key:
[1] = target: T1, Rat recombinant PDE10A (rPDE10A2) (Rattus norvegicus, UniProt Q9QYJ6); experiment: In vitro assay PDE10A (SPA, 3H-cAMP); type: biochemical; settings: pIC50 corresponds to the -log IC50 expressed in mol/L; read-out: PDE10A2 pIC50 (converted)
T1 construct: made in house; host or cells: Sf9 insect cells, baculovirus
T1 sequence (Q9QYJ6 1-794): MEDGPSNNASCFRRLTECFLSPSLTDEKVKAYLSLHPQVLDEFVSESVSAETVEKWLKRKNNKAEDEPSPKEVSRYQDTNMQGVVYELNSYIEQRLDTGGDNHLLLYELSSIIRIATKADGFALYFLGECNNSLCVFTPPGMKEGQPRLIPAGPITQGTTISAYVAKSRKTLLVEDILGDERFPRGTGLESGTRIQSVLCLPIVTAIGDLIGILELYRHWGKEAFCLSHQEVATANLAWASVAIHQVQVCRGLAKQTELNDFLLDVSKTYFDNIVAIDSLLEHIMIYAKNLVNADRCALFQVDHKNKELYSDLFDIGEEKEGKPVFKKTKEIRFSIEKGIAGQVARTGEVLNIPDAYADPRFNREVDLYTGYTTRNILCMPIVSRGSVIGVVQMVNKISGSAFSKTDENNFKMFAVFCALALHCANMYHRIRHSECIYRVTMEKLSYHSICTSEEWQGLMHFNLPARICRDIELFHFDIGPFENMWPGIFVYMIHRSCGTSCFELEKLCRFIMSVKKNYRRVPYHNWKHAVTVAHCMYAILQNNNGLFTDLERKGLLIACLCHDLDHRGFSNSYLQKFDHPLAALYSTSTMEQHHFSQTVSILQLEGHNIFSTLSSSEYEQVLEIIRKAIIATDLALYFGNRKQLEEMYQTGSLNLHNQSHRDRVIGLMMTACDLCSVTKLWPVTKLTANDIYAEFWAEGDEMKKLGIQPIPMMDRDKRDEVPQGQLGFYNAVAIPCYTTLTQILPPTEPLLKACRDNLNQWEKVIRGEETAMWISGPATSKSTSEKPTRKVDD
Protocol: Rat recombinant PDE10A (rPDE10A2) was expressed in Sf9 cells using a recombinant rPDE10A baculovirus construct. Cells were harvested after 48 h of infection and the rPDE10A protein was purified by metal chelate chromatography on Ni-sepharose 6FF. Tested compounds were dissolved and diluted in 100% DMSO to a concentration 100 fold of the final concentration in the assay. Compound dilutions (0.4 μl) were added in 384 well plates to 20 μl of incubation buffer (50 mM Tris pH 7.8, 8.3 mM MgCl2, 1.7 mM EGTA). 10 μl of rPDE10A enzyme in incubation buffer was added and the reaction was started by addition of 10 μl substrate to a final concentration of 60 nM cAMP and 0.008 μCi ^3H-cAMP. The reaction was incubated for 60 min. at RT. […] After sedimentation of the beads during 30 min. the radioactivity was measured in a Perkin Elmer Topcount scintillation counter and results were expressed as cpm. For blank values the enzyme was omitted from the reaction and replaced by incubation buffer. Control values were obtained by addition of a final concentration of 1% DMSO instead of compound. The same assay principle is applied for the measurement of the affinity of the compound for other members of the PDE family with appropriate modifications in incubation buffer, substrate concentration, incubation time and stop solution.

[2] = test system: apomorphine-induced stereotypy; experiment: Apomorphine-induced stereotypy in rats (APO); type: in vivo; settings: Rattus norvegicus
Protocol: Apomorphine-Induced Stereotypy in Rats (APO)
Apomorphine (1.0 mg/kg, i.v.)-induced stereotypy (compulsive sniffing, licking, chewing) was scored every 5 min. over the first hour after injection of apomorphine, following a 1 hour interval pre-treatment with the test compound. The score system was: (3) pronounced, (2) moderate, (1) slight, and (O) absent.

[3] = not active at 2.5 or at 10 mg/kg, not further tested, read-out: APO ED50 (not active at threshold dose)

| Compound | IC50 [1] [nM] | further results |
| --- | --- | --- |
| COc1ncc(-c2c(C)nc3c(N4CCOCC4)nccn23)cn1 [compound 32, 3-(2-Methoxy-pyrimidin-5-yl)-2-methyl-8-morpholin-4-yl-imidazo[1,2-a]pyrazine] | 479 |  |
| Cc1nc2c(N3CCOCC3)nccn2c1-c1ccc(CC(C)C)nc1 [compound 106] |  | ED50 [2, 3]: > 2.5 mg/kg |
| Cc1nc2c(N3CCOCC3)nccn2c1-c1cnn(CC2CC2(F)F)c1 (single isomer, unassigned) [compound 47] | 28.2 |  |
| Cc1nc2c(N3CCOCC3)nccn2c1-c1cc[nH]c1 [compound 43, 2-Methyl-8-morpholin-4-yl-3-(1H-pyrrol-3-yl)-imidazo[1,2-a]pyrazine] | 871 |  |
| Cc1nc2c(N3CCOCC3)nccn2c1-c1cnn(C2CCOC2)c1 (single isomer, unassigned) [compound 88] | 132 |  |
| Cc1nc2c(N3CCOCC3)nccn2c1-c1ccc(N2CCCC2)nc1 [compound 123] |  | ED50 [2, 3]: > 2.5 mg/kg |
| Cc1nc2c(N3CCOCC3)nccn2c1-c1cnn(C2CCOC2)c1 (single isomer, unassigned) [compound 109] | 178 |  |
| Cc1nc2c(N3CCOCC3)nccn2c1-c1cnc(N2CCOCC2)nc1 [compound 85] | 120 |  |
| CCOCCc1ccc(-c2c(C)nc3c(N4CCOCC4)nccn23)cn1 [compound 20, 3-[6-(2-Ethoxy-ethyl)-pyridin-3-yl]-2-methyl-8-morpholin-4-yl-imidazo[1,2-a]pyrazine] |  | ED50 ([2]; read-out: APO ED50): 1.2 mg/kg |
| Cc1nc2c(N3CCOCC3)nccn2c1-c1ccc(C(C)C)nc1 [compound 107] |  | ED50 ([2]; read-out: APO ED50): 5 mg/kg |
| COCCn1cc(-c2c(OC)nc3c(N4CCOCC4)nccn23)cn1 [compound 137] | 631 |  |
| COCCc1ccc(-c2c(C3CC3)nc3c(N4CCOCC4)nccn23)cn1 [compound 10, 2-Cyclopropyl-3-[6-(2-methoxy-ethyl)-pyridin-3-yl]-8-morpholin-4-yl-imidazo[1,2-a]pyrazine] |  | ED50 ([2]; read-out: APO ED50): 1.2 mg/kg |
| CCc1nc2c(N3CCOCC3)nccn2c1-c1cnn(CCOC)c1 [compound 100] |  | ED50 ([2]; read-out: APO ED50): 5 mg/kg |
| Cc1nc2c(N3CCOCC3)nccn2c1-c1cnn(CC(=O)C2CC2)c1 [compound 98] | 145 |  |
| COC(Cn1cc(-c2c(C)nc3c(N4CCOCC4)nccn23)cn1)C(C)C (single isomer, unassigned) [compound 54] | 56.2 |  |
| CCc1ccc(-c2c(C3CC3)nc3c(N4CCOCC4)nccn23)cn1 [compound 66] | 85.1 |  |
| CCOCc1ccc(-c2c(C)nc3c(N4CCOCC4)nccn23)cn1 [compound 5, 3-(6-Ethoxymethyl-pyridin-3-yl)-2-methyl-8-morpholin-4-yl-imidazo[1,2-a]pyrazine] |  | ED50 [2, 3]: > 2.5 mg/kg |
| CC(=O)Cn1cc(-c2c(C)nc3c(N4CCOCC4)nccn23)cn1 [compound 117] | 309 |  |
| CCOCCn1cc(-c2c(C)nc3c(-c4ccncc4)nccn23)cn1 [compound 128] | 468 |  |
| Cc1nc2c(N3CCOCC3)nccn2c1-c1coc(CC(C)C)n1 [compound 41, 3-(2-Isobutyl-oxazol-4-yl)-2-methyl-8-morpholin-4-yl-imidazo[1,2-a]pyrazine] |  | ED50 ([2]; read-out: APO ED50): 5 mg/kg |
| CCc1ccc(-c2c(C)nc3c(N4CCOCC4)nccn23)cn1 [compound 26, 3-(6-Ethyl-pyridin-3-yl)-2-methyl-8-morpholin-4-yl-imidazo[1,2-a]pyrazine] |  | ED50 [2, 3]: > 2.5 mg/kg |
| Cc1cc(-c2c(C)nc3c(N4CCOCC4)nccn23)ccn1 [compound 133] | 550 |  |
| COCCc1cc(-c2c(C)nc3c(N4CCOCC4)nccn23)ccn1 [compound 19, 3-[2-(2-Methoxy-ethyl)-pyridin-4-yl]-2-methyl-8-morpholin-4-yl-imidazo[1,2-a]pyrazine] |  | ED50 [2, 3]: > 2.5 mg/kg |

| Compound | IC50 [1] [nM] | further results |
| --- | --- | --- |
| COCCn1cc(-c2c(C)nc3c(N4CCOCC4)nc(CCC(F)(F)F)cn23)cn1 [compound 39, 3-[1-(2-Methoxy-ethyl)-1H-pyrazol-4-yl]-2-methyl-8-morpholin-4-yl-6-(3,3,3-trifluoro-propyl)-imidazo[1,2-a]pyrazine] | 933 |  |
| COCCOc1ccc(-c2c(C)nc3c(N4CCOCC4)nccn23)cn1 [compound 1, 3-[6-(2-Methoxy-ethoxy)-pyridin-3-yl]-2-methyl-8-morpholin-4-yl-imidazo[1,2-a]pyrazine] |  | ED50 ([2]; po, * compound was not soluble and was tested orally as a suspension, read-out: APO ED50): 0.8 mg/kg |
| Cc1nc2c(N3CCOCC3)nccn2c1-c1cnn(CCOC(C)C)c1 [compound 127] | 457 |  |
| Cc1nc2c(-c3ccncc3)nccn2c1-c1cnn(CC2CCCCO2)c1 (single isomer, unassigned) [compound 92] | 135 |  |
| Cc1nc2c(N3CCOCC3)nccn2c1-c1ccc(CCOC(C)C)nc1 [compound 21, 3-[6-(2-Isopropoxy-ethyl)-pyridin-3-yl]-2-methyl-8-morpholin-4-yl-imidazo[1,2-a]pyrazine] |  | ED50 ([2]; read-out: APO ED50): 1.2 mg/kg |
| Cc1nc2c(N3CCOCC3)nccn2c1-c1cnn(CC2CC2(F)F)c1 (single isomer, unassigned) [compound 64] | 83.2 |  |
| COCCc1ccc(-c2c(C)nc3c(N4CCOCC4)nccn23)nc1 [compound 31, 3-[5-(2-Methoxy-ethyl)-pyridin-2-yl]-2-methyl-8-morpholin-4-yl-imidazo[1,2-a]pyrazine] |  | ED50 [2, 3]: > 2.5 mg/kg |
| COCCOc1ccc(-c2c(C)nc3c(-c4ccncc4)nccn23)cn1 [compound 132] | 537 |  |
| COC(C)(C)Cc1ccc(-c2c(C)nc3c(N4CCOCC4)nccn23)cn1 [compound 7, 3-[6-(2-Methoxy-2-methyl-propyl)-pyridin-3-yl]-2-methyl-8-morpholin-4-yl-imidazo[1,2-a]pyrazine] |  | ED50 ([2]; read-out: APO ED50): 1.2 mg/kg |
| COC(Cn1cc(-c2c(C)nc3c(N4CCOCC4)nccn23)cn1)C(C)C (single isomer, unassigned) [compound 59] | 74.1 |  |
| COC(C)(C)COc1ccc(-c2c(C)nc3c(-c4ccncc4)nccn23)cn1 [compound 2, 3-[6-(2-Methoxy-2-methyl-propoxy)-pyridin-3-yl]-2-methyl-8-pyridin-4-yl-imidazo[1,2-a]pyrazine] | 708 |  |
| Cc1nc2c(N3CCOCC3)nccn2c1-c1cnn(CCCF)c1 [compound 86] | 123 |  |
| Cc1nc2c(-c3ccncc3)nccn2c1-c1cnn(CCN2CCOCC2)c1 [compound 126] | 457 |  |
| Cc1nc2c(N3CCOCC3)nccn2c1-c1ccc(-c2ccc(F)cc2)nc1 [compound 139] | 776 |  |
| COC[C@H](C)n1cc(-c2c(C)nc3c(N4CCOCC4)nccn23)cn1 [compound 75] | 100 |  |
| COC(C)(C)Cc1ccc(-c2c(C3CC3)nc3c(N4CCOCC4)nccn23)cn1 [compound 60] | 75.9 |  |
| CCOCCn1cc(-c2c(C)nc3c(N4CCOCC4)nccn23)cn1 [compound 93] | 135 |  |
| Cc1nc2c(-c3ccncc3)nccn2c1-c1ccc(OCC(F)(F)F)nc1 [compound 129] | 501 |  |
| Cc1nc2c(-c3ccncc3)nccn2c1-c1cnn(CC2CCCCO2)c1 (single isomer, unassigned) [compound 80] | 112 |  |
| Cc1nc2c(N3CCOCC3)nccn2c1-c1cnn(CC2CCCCO2)c1 (stereo not shown) [compound 73] | 95.5 |  |
| COCCn1cc(-c2c(OC)nc3c(N4CCCC4)nccn23)cn1 [compound 131] | 537 |  |
| Cc1nc2c(N3CCOCC3)nccn2c1-c1ccc(CCN2CCCC2)nc1 [compound 140] | 871 |  |
| COCCn1cc(-c2c(C)nc3c(N4CCOCC4)nc(C4CC4)cn23)cn1 [compound 37, 6-Cyclopropyl-3-[1-(2-methoxy-ethyl)-1H-pyrazol-4-yl]-2-methyl-8-morpholin-4-yl-imidazo[1,2-a]pyrazine] | 490 |  |
